Assay results published in patent US8026251B2, “Huperzine A and its derivatives as analgesic agents” (priority 2005, dated 2011).

Assays:
mice = experiment: Hot plate test (pain threshold, mice); assay type: in vivo, Kunming mice; settings: x ± s, n = 10; for Pain thresholds before administration: hot plate 55°C, baseline before administration; for Pain thresholds after administration at 30 min / Pain thresholds after administration at 60 min / Pain thresholds after administration at 120 min / Pain thresholds after administration at 180 min / Pain thresholds after administration at 240 min: hot plate
Procedure: Kunming mice, grade 2, female, weight of 20±2 g, purchased from the Division of Laboratory Animals, Department of Medical Sciences of Peking University, animal license No.: SCX Jing 2002-0001.
1.2.1 Solutions of huperzine A and huperzine A derivatives in normal saline water were prepared for stomach perfusion of mice.
1.2.2 Solutions of bucinnazine hydrochloride tablets, 30 mg/tablet, manufactured by Tianjin Lisheng Pharmaceutical Factory, approval No.: 0201001, in normal saline solution were prepared at a concentration of 1.5 mg/ml for stomach perfusion of mice.
A water bath was heated to a constant temperature of 55±0.5° C. The bottom of a metal plate was placed in contact with water surface. A mouse was placed on the hot plate and a timer was activated. The timer was deactivated when the mouse began licking its rear feet. The measured time was taken as the pain threshold. The pain threshold was measured two times for each mouse, and those mice whose average pain threshold was less than 30 s were qualified for the experiment.
Qualified mice were randomly divided into groups of 10. At first the pain threshold before administration of a drug was measured. Then drugs were administered as identified in Table 1. The administration volume was 0.2 ml per each 10 g of weight. Normal saline solution was administered to the control group. After administration, the pain threshold was measured at different time periods post-administration. A statistical t-test was calculated of the group interval, based on the test data.

migraine = experiment: Treatment of migraine with oral huperzine A (clinical cases); assay type: in vivo, human; settings: for Time from administration until headache completely disappeared: two tablets (50 μg/tablet) oral on occurrence of migraine
Procedure: Test 2: Treatment of Migraine with Oral Huperzine A
Drug: Huperzine A Tablet (50 μg/tablet, manufactured by Henan Zhulin Zhongsheng Pharmaceutical Factory.)
Previously treated with bufferin plus, but recently reported that analgesic effects of bufferin plus have weakened.
Methods: On occurrence of migraine pains (8 times within a month), two tablets of huperzine A were administered. Within 20 minutes from administration, the headache has completely disappeared.
Patient: with a medical history of migraine of 2 years. Previously treated with ergotamine, but recently reported that analgesic effects of ergotamine have weakened.
Methods: On occurrence of migraine pains (10 times within a month), two tablets of huperzine A were administered. Within 30 minutes from administration, the headache has completely disappeared.
Patient: with a medical history of migraine of 3 years, occurring at a frequency of about 8-12 times per month.
Methods: One tablet of huperzine A was administered per day orally.

## C/C=C1\[C@H]2C=C(C)C[C@]1(NC(=O)OCC(C)C)c1ccc(=O)[nH]c1C2 [Example 7, (5R,9R,11E)-5-(2-methylpropoxycarbonylamino)-11-ethylidene-5,6,9,10-tetrahydro-7-methyl-5,9-methanocycloocta[b]pyridin-2(1H)-one]
mice; group later dosed 0.6 mg/kg by stomach perfusion
  Pain thresholds before administration: 15.8 ± 3.97 s
mice; 0.6 mg/kg stomach perfusion
  Pain thresholds after administration at 30 min: 28.5 ± 2.55 s
  Pain thresholds after administration at 60 min: 30.1 ± 6.90 s
  Pain thresholds after administration at 120 min: 27.7 ± 4.49 s
  Pain thresholds after administration at 180 min: 23.1 ± 2.41 s

## C/C=C1\[C@H]2C=C(C)C[C@]1(N)c1ccc(=O)[nH]c1C2 [Huperzine A, (5R,9R,11E)-5-amino-11-ethylidene-5,6,9,10-tetrahydro-7-methyl-5,9-methanocycloocta[b]pyridin-2(1H)-one]
mice; group later dosed 0.2 mg/kg by stomach perfusion
  Pain thresholds before administration: 14.2 ± 4.49 s
mice; group later dosed 0.4 mg/kg by stomach perfusion
  Pain thresholds before administration: 15.3 ± 2.86 s
mice; 0.2 mg/kg stomach perfusion
  Pain thresholds after administration at 30 min: 13.3 ± 4.05 s
  Pain thresholds after administration at 60 min: 14.5 ± 5.08 s
  Pain thresholds after administration at 120 min: 14.2 ± 5.20 s
  Pain thresholds after administration at 180 min: 13.3 ± 3.68 s
  Pain thresholds after administration at 240 min: 14.6 ± 2.84 s
mice; 0.4 mg/kg stomach perfusion
  Pain thresholds after administration at 30 min: 28.4 ± 8.12 s
  Pain thresholds after administration at 60 min: 31.7 ± 10.56 s
  Pain thresholds after administration at 120 min: 27.6 ± 8.22 s
  Pain thresholds after administration at 180 min: 25.5 ± 8.88 s
  Pain thresholds after administration at 240 min: 27.8 ± 5.94 s
migraine; Case 1, migraine patient
  Time from administration until headache completely disappeared: ≤ 20 min
migraine; Case 1, two tablets (50 μg/tablet) oral per attack
  Analgesic effects over a period of one month: Good analgesic effects
migraine; Case 1, two tablets (50 μg/tablet) oral per attack, 8 times within a month
  Side effects: Minor side effects
migraine; Case 2, migraine patient
  Time from administration until headache completely disappeared: ≤ 30 min
migraine; Case 2, two tablets (50 μg/tablet) oral per attack
  Analgesic effects over a period of one month: Good analgesic effects
migraine; Case 2, two tablets (50 μg/tablet) oral per attack, 10 times within a month
  Side effects: No side effects
migraine; Case 3, migraine about 8-12 times per month, one tablet (50 μg) per day orally
  Migraine attacks over the period of 1 month (prevention): did not complain of migraine attacks
migraine; long-term administration, summary statement
  Effect of long-term administration on migraine attacks: prevents migraine attacks
migraine; oral administration, summary statement
  Effect on migraine in clinical studies: alleviates and/or cures migraine
